Results on one molecule are retold here after article PMC12254379, “Artesunate induces ferroptosis in diffuse large B-cell lymphoma cells by targeting PRDX1 and PRDX2” (Cell Death & Disease, 2025).

Assay [1] has as its target T1, rhPRDX1 (PRDX1) (Homo sapiens, UniProt Q06830).
T1 construct: pET28a His-tagged, expressed in E. coli BL21, His-purified; homodimer in docking model; endogenous protein of U2932 lysate in the Biotin-ART pull-down
T1 sequence (Q06830 2-199): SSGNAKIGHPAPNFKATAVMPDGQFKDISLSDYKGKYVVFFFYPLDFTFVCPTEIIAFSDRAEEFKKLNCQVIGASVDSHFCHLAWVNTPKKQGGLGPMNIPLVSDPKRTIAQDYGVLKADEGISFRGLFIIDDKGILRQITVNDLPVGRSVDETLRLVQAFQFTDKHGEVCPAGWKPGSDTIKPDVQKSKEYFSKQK
As to the kind of experiment: intrinsic fluorescence titration, Hill plot. Type of assay: binding.

In assay [2] the target is T2, rhPRDX2 (PRDX2) (Homo sapiens, UniProt P32119).
T2 construct: pET28a His-tagged, expressed in E. coli Rosetta, His-purified; decamer in docking model; endogenous protein of U2932 lysate in the Biotin-ART pull-down
T2 sequence (P32119 2-198): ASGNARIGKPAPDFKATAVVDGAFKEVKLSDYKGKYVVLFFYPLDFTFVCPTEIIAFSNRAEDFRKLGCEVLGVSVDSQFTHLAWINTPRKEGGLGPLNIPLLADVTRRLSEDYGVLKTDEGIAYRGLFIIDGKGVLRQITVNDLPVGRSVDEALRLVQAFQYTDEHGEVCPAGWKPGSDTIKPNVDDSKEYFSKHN
The experiment in a line: CD thermal denaturation. To be noted: 10 μM protein, 1 mM ART, 20 mM Tris-HCl. It counts as binding.

Assay [3] concerns the target T2, rhPRDX2 (PRDX2). The experiment in a line: intrinsic fluorescence titration, Hill plot. It counts as binding.
The target in assay [4] is T1, rhPRDX1 (PRDX1). The experiment in a line: H2O2 reduction assay, residual H2O2 kit. To be noted: 20 μM protein, 30 min preincubation, 100 μM H2O2, RT. It counts as biochemical.

One may read the Kd as the free concentration of one partner at which half of the binding sites on the other are occupied at equilibrium, for simple one-to-one binding. Consider `C[C@H]1[C@H](OC(=O)CCC(=O)O)O[C@@H]2O[C@@]3(C)CC[C@H]4[C@H](C)CC[C@@H]1[C@@]24OO3` [Artesunate], for which the figures for the Kd on rhPRDX1 (PRDX1) [1] and on rhPRDX2 (PRDX2) [3] were 6.1 µM and 5.24 µM, respectively. On rhPRDX2 (PRDX2) [2], the “Tm (without to with ART)” value was in the range of 57 to 61 °C. Also, the “H2O2 reduction assay, residual H2O2 kit” value on rhPRDX1 (PRDX1) [4] was “ART suppressed the peroxidase activity of rhPRDX1 and rhPRDX2 in a dose-dependent manner”.
